Measured values taken from US9683018B2, “Disulfide cyclic polypeptides for the treatment of heart failure” (priority 2013, dated 2017).
pEC50: −log10 of the molar value. Bridge positions count the residues as written; N and C are the ends. Square brackets hold non-standard residues; d marks the D form. Peptide text beside a SMILES is read from it. pGlu = O=C1CC[C@@H](C(=O)O)N1; d(hCys) = N[C@H](CCS)C(=O)O; dNle = CCCC[C@@H](N)C(=O)O; hCys = N[C@@H](CCS)C(=O)O; Nle = CCCC[C@H](N)C(=O)O; Aib = CC(C)(N)C(=O)O; Inp = O=C(O)C1CCNCC1

How the values were obtained:
in vitro = settings: rat, plasma, Surrogate activity-based Plasma stability t½
Method: The calcium flux protocol described above was followed, with the following changes. The peptides were also incubated with 5% rat plasma (Bioreclamation # [sequence]-M, Na Heparin-treated). Readings were taken at time points t0 and t24 hrs, after incubation in a 37° C. tissue culture incubator. Peptide plasma half-life in minutes was estimated by calculating the following:
2) Calculate slope of value above and

hAPJ = target: T1, hAPJ (Homo sapiens, UniProt P35414); assay: hAPJ Calcium Flux Assay; assay type: cell-based; settings: Chem-5 APJ stable cells, FLIPR calcium flux; read-out: hAPJ Ca2+ Flux EC50
T1 sequence (P35414 1-380): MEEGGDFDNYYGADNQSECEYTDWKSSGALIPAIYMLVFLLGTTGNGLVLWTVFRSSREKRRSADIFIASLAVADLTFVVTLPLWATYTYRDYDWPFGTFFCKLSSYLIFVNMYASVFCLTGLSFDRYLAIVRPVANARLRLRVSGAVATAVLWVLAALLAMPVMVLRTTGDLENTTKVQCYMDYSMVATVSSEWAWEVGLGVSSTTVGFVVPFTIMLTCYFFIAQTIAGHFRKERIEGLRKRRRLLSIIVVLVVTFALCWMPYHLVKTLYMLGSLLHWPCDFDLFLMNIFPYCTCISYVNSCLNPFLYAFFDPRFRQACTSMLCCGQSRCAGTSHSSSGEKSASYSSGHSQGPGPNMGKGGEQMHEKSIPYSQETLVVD
Method: Chem-5 APJ stable cells (Millipore # HTS068C) were plated in 384-well format with 10,000 cells/well in 25 ul growth media, then grown 24 hours in a 37° C. tissue culture incubator. One hour before the assay, 25 ul/well FLIPR Calcium 4 dye (Molecular Devices R8142) with 2.5 mM probenecid was added, and cells were incubated one hour in a 37° C. tissue culture incubator. Peptides were solubilized in HBSS, HEPES & 0.1% BSA buffer, and serially-diluted 10-fold, from 50 uM to 5 pM, in triplicate. FLIPR Tetra was used to add peptide to the cells with dye (1:5, for final peptide concentrations ranging from 10 uM to 1 pM). FLIPR dye inside the cells emitted fluorescence after binding to calcium, while fluorescence from outside the cells was masked. Fluorescence was measured using 470-495 excitation and 515-575 emission wavelengths on the FLIPR Tetra. Readings were done for 3 minutes total, beginning 10 seconds before the peptide addition. Maximum-minimum values were calculated and plotted for each peptide concentration, and GraphPad prism software was used to calculate EC50 values at the curve inflection points, for calcium flux stimulation by peptides.

| SMILES | half-life (in vitro) | pEC50 (hAPJ) |
| --- | --- | --- |
| CCCC[C@@H]1NC(=O)[C@@H]2CCCN2C(=O)CNC(=O)[C@H](CCCCN)NC(=O)[C@H](NC(=O)[C@H](CO)NC(=O)[C@H](CC(C)C)NC(=O)[C@H](CCCNC(=N)N)NC(=O)[C@@H]2CCCN2C(=O)[C@H](CCCNC(=N)N)NC(=O)[C@@H]2CCC(=O)N2)CCSSC[C@@H](C(=O)O)NC1=O [Example 10, pE-R-P-R-L-S-(D-hC)*-K-G-P-Nle-C*-OH] ([pGlu]RPRLS[d(hCys)]KGP[Nle]C-OH; disulfide 7-12) | 1.64 h | 6.01 |
| CCCC[C@@H]1NC(=O)[C@@H]2CCCN2C(=O)CNC(=O)[C@H](CCCCN)NC(=O)[C@H](NC(=O)[C@H](CO)NC(=O)[C@H](CC(C)C)NC(=O)[C@H](CCCNC(=N)N)NC(=O)[C@@H]2CCCN2C(=O)[C@H](CCCNC(=N)N)NC(=O)[C@@H]2CCC(=O)N2)CCSSCC[C@H](C(=O)N[C@@H](Cc2ccccc2)C(=O)O)NC1=O [Example 7, pE-R-P-R-L-S-(D-hC)*-K-G-P-Nle-(D-hC)*-F-OH] ([pGlu]RPRLS[d(hCys)]KGP[Nle][d(hCys)]F-OH; disulfide 7-12) | 2.01 h | 6.11 |
| CCCC[C@@H]1NC(=O)[C@@H]2CCCN2C(=O)CNC(=O)[C@H](CCCCN)NC(=O)[C@@H](NC(=O)[C@H](CO)NC(=O)[C@H](CC(C)C)NC(=O)[C@H](CCCNC(=N)N)NC(=O)[C@@H]2CCCN2C(=O)[C@H](CCCNC(=N)N)NC(=O)[C@@H]2CCC(=O)N2)CSSC[C@H](C(=O)N[C@@H](Cc2ccccc2)C(=O)O)NC1=O [Example 11, pE-R-P-R-L-S-C*-K-G-P-Nle-c*-F-OH] ([pGlu]RPRLSCKGP[Nle][dC]F-OH; disulfide 7-12) | 2.28 h | 6.95 |
| CCCC[C@@H]1NC(=O)[C@@H]2CCCN2C(=O)CNC(=O)[C@H](CCCCN)NC(=O)[C@H](NC(=O)[C@H](CO)NC(=O)[C@H](CC(C)C)NC(=O)[C@H](CCCNC(=N)N)NC(=O)[C@@H]2CCCN2C(=O)[C@H](CCCNC(=N)N)NC(=O)[C@@H]2CCC(=O)N2)CCSSCC[C@@H](C(=O)N[C@@H](Cc2ccccc2)C(=O)O)NC1=O [Example 9, pE-R-P-R-L-S-(D-hC)*-K-G-P-Nle-hC*-F-OH] ([pGlu]RPRLS[d(hCys)]KGP[Nle][hCys]F-OH; disulfide 7-12) | 0.95 h | 5.99 |
| CCCC[C@@H]1NC(=O)[C@@H]2CCCN2C(=O)CNC(=O)[C@H](CCCCN)NC(=O)[C@@H](NC(=O)[C@H](CO)NC(=O)[C@H](CC(C)C)NC(=O)[C@H](CCCNC(=N)N)NC(=O)[C@@H]2CCCN2C(=O)[C@H](CCCNC(=N)N)NC(=O)[C@@H]2CCC(=O)N2)CCSSCC[C@H](C(=O)N[C@@H](Cc2ccccc2)C(=O)O)NC1=O [Example 6, pE-R-P-R-L-S-hC*-K-G-P-Nle-(D-hC)*-F-OH] ([pGlu]RPRLS[hCys]KGP[Nle][d(hCys)]F-OH; disulfide 7-12) | 0.208 h | 7.03 |
| CCCC[C@@H]1NC(=O)[C@@H]2CCCN2C(=O)CNC(=O)[C@H](CCCCN)NC(=O)[C@H](NC(=O)[C@H](CO)NC(=O)[C@H](CC(C)C)NC(=O)[C@H](CCCNC(=N)N)NC(=O)[C@@H]2CCCN2C(=O)[C@H](CCCNC(=N)N)NC(=O)[C@@H]2CCC(=O)N2)CCSSC[C@@H](C(=O)N[C@@H](Cc2ccccc2)C(=O)O)NC1=O [Example 8, pE-R-P-R-L-S-(D-hC)*-K-G-P-Nle-C*-F-OH] ([pGlu]RPRLS[d(hCys)]KGP[Nle]CF-OH; disulfide 7-12) | 1.29 h | 6.21 |
| CCCC[C@H]1NC(=O)[C@@H]2CCCN2C(=O)CNC(=O)[C@H](CCCCN)NC(=O)[C@H](Cc2c[nH]cn2)NC(=O)[C@H](CO)NC(=O)[C@@H](NC(=O)[C@H](CCCNC(=N)N)NC(=O)[C@@H]2CCCN2C(=O)[C@H](CCCNC(=N)N)NC(=O)[C@@H]2CCC(=O)N2)CCSSC[C@@H](C(=O)N[C@H](Cc2ccc(O)cc2)C(=O)O)NC1=O [Example 2, pE-R-P-R-hC*-S-H-K-G-P-(D-Nle)-C*-y-OH] ([pGlu]RPR[hCys]SHKGP[dNle]C[dY]-OH; disulfide 5-12) | 0.867 h | 6.81 |
| CCCC[C@@H]1NC(=O)[C@@H]2CCCN2C(=O)CNC(=O)[C@H](CCCCN)NC(=O)[C@@H](NC(=O)[C@H](CO)NC(=O)[C@H](CC(C)C)NC(=O)[C@H](CCCNC(=N)N)NC(=O)[C@@H]2CCCN2C(=O)[C@H](CCCNC(=N)N)NC(=O)[C@@H]2CCC(=O)N2)CSSCC[C@H](C(=O)N[C@@H](Cc2ccccc2)C(=O)O)NC1=O [Example 4, pE-R-P-R-L-S-C*-K-G-P-Nle-(D-hC)*-F-OH] ([pGlu]RPRLSCKGP[Nle][d(hCys)]F-OH; disulfide 7-12) | 0.403 h | 6.39 |

Now from value to molecule:

| half-life (in vitro) | pEC50 (hAPJ) | SMILES |
| --- | --- | --- |
| 5.38 h | 7.48 | CCCC[C@@H]1NC(=O)[C@@H]2CCCN2C(=O)[C@@H](NC(=O)[C@H](CCCCN)NC(=O)[C@@H](C)NC(=O)[C@H](CO)NC(=O)[C@H](CC(C)C)NC(=O)[C@H](CCCNC(=N)N)NC(=O)[C@@H]2CCCN2C(=O)[C@H](CCCNC(=N)N)NC(=O)[C@@H]2CCC(=O)N2)CSSC[C@@H](C(=O)N[C@H](Cc2ccccc2)C(=O)O)NC1=O [Example 16, pE-R-P-R-L-S-a-K-C*-P-Nle-C*-f-OH] ([pGlu]RPRLS[dA]KCP[Nle]C[dF]-OH; disulfide 9-12) |
| 1.17 h | 7.09 | CCCC[C@@H]1NC(=O)[C@@H]2CCCN2C(=O)CNC(=O)[C@H](CCCCN)NC(=O)[C@@H](NC(=O)[C@H](CO)NC(=O)[C@H](CC(C)C)NC(=O)[C@H](CCCNC(=N)N)NC(=O)[C@@H]2CCCN2C(=O)[C@H](CCCNC(=N)N)NC(=O)[C@@H]2CCC(=O)N2)CSSCC[C@@H](C(=O)N[C@@H](Cc2ccccc2)C(=O)O)NC1=O [Example 12, pE-R-P-R-L-S-C*-K-G-P-Nle-hC*-F-OH] ([pGlu]RPRLSCKGP[Nle][hCys]F-OH; disulfide 7-12) |
| 5.52 h | 8.21 | CCCC[C@@H]1NC(=O)[C@@H]2CCCN2C(=O)[C@@H](NC(=O)[C@H](CCCCN)NC(=O)C(C)(C)NC(=O)[C@H](CO)NC(=O)[C@H](CC(C)C)NC(=O)[C@H](CCCNC(=N)N)NC(=O)[C@@H]2CCCN2C(=O)[C@H](CCCNC(=N)N)NC(=O)[C@@H]2CCC(=O)N2)CSSC[C@@H](C(=O)N[C@H](Cc2ccccc2)C(=O)O)NC1=O [Example 20, pE-R-P-R-L-S-Aib-K-C*-P-Nle-C*-f-OH] ([pGlu]RPRLS[Aib]KCP[Nle]C[dF]-OH; disulfide 9-12) |
| 36.4 h | 7.14 | CCCC[C@@H]1NC(=O)[C@@H]2CCCN2C(=O)[C@@H](NC(=O)[C@H](CCCCN)NC(=O)C(C)(C)NC(=O)[C@@H](C)NC(=O)[C@H](CC(C)C)NC(=O)[C@H](CCCNC(=N)N)NC(=O)[C@@H]2CCCN2C(=O)[C@H](CCCNC(=N)N)NC(=O)[C@@H]2CCC(=O)N2)CSSC[C@@H](C(=O)N[C@H](Cc2ccccc2)C(=O)O)NC1=O [Example 19, pE-R-P-R-L-a-Aib-K-C*-P-Nle-C*-f-OH] ([pGlu]RPRL[dA][Aib]KCP[Nle]C[dF]-OH; disulfide 9-12) |
| 1.73 h | 6.12 | CCCC[C@@H]1NC(=O)[C@@H]2CCCN2C(=O)CNC(=O)[C@H](CCCCN)NC(=O)[C@@H](NC(=O)[C@H](CO)NC(=O)[C@H](CC(C)C)NC(=O)[C@H](CCCNC(=N)N)NC(=O)[C@@H]2CCCN2C(=O)[C@H](CCCNC(=N)N)NC(=O)[C@@H]2CCC(=O)N2)CCSSCC[C@@H](C(=O)N[C@@H](Cc2ccccc2)C(=O)O)NC1=O [Example 13, pE-R-P-R-L-S-hC*-K-G-P-Nle-hC*-F-OH] ([pGlu]RPRLS[hCys]KGP[Nle][hCys]F-OH; disulfide 7-12) |
| 8.88 h | 8.01 | CCCC[C@@H]1NC(=O)[C@@H]2CCCN2C(=O)[C@@H](NC(=O)[C@H](CCCCN)NC(=O)[C@H](Cc2c[nH]cn2)NC(=O)[C@@H](CO)NC(=O)[C@H](CC(C)C)NC(=O)[C@H](CCCNC(=N)N)NC(=O)[C@@H]2CCCN2C(=O)[C@H](CCCNC(=N)N)NC(=O)[C@@H]2CCC(=O)N2)CSSC[C@@H](C(=O)N[C@H](Cc2ccccc2)C(=O)O)NC1=O [Example 21, pE-R-P-R-L-s-H-K-C*-P-Nle-C*-f-OH] ([pGlu]RPRL[dS]HKCP[Nle]C[dF]-OH; disulfide 9-12) |
| 16.5 h | 8.64 | CCCC[C@@H]1NC(=O)[C@@H]2CCCN2C(=O)[C@@H](NC(=O)[C@H](CCCCN)NC(=O)[C@H](Cc2c[nH]cn2)NC(=O)[C@@H](C)NC(=O)[C@H](CC(C)C)NC(=O)[C@H](CCCNC(=N)N)NC(=O)[C@@H]2CCCN2C(=O)[C@H](CCCNC(=N)N)NC(=O)C2CCNCC2)CSSC[C@@H](C(=O)N[C@H](Cc2ccccc2)C(=O)O)NC1=O [Example 18, Isonipecotoyl-R-P-R-L-a-H-K-C*-P-Nle-C*-f-OH] (H-[Inp]RPRL[dA]HKCP[Nle]C[dF]-OH; disulfide 9-12) |
